The values below come from US11931343B2 (ARCUS BIOSCIENCES, INC., priority 2018, dated 2024).

For the assay, the target named is T1, human CD73 (Homo sapiens, UniProt P21589).
T1 sequence (P21589 27-549): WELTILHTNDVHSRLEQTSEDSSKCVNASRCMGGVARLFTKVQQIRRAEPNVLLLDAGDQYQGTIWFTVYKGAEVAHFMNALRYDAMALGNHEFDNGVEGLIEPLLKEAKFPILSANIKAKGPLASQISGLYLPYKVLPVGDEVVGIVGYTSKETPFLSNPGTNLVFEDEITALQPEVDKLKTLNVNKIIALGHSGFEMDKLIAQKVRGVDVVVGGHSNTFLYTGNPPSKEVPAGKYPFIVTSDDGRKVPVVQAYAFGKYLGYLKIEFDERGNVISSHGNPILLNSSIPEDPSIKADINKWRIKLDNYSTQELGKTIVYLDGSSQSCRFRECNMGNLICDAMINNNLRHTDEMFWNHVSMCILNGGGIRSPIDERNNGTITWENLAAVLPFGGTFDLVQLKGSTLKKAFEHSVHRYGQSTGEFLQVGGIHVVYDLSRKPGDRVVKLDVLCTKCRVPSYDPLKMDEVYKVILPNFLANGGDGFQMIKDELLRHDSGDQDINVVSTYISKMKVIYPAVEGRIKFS
As to the kind of experiment: Inhibition of Ecto-5′-nucleotidase (CD73) activity in CHO-CD73 cells, phosphate release from AMP. In kind it is cell-based. The following applies: CHO-K1 cells stably transfected with human CD73; 25 μM AMP; 50 minutes, 37° C.; read-out: Potency: CD73 IC50.

Where only a bound is given, the exact number is not on record here.

As to `N#Cc1ccc(Cn2nccc2-c2cc3c(cc2Cl)nnn3-c2ccc3cn[nH]c3c2)cc1` [Example 151], the concentration for half-maximal inhibition (IC50) is 100 to 1000 nM.
The result for `Clc1ccc(Cn2nccc2-c2cc(Cl)c3nnn(-c4ccc5cn[nH]c5c4)c3c2)cc1` [Example 44] reads less than 100 nM.
The result for `CC(NC(=O)Cn1nccc1-c1cc(Cl)c2nnn(-c3ccc4cn[nH]c4c3)c2c1)c1ccccc1` (stereo not shown) [Example 185] reads greater than 1000 nM; that for `CC(O)c1cc(C#N)ccc1Cn1nccc1-c1cc(F)c2nnn(-c3ccc4[nH]c(=O)[nH]c4c3)c2c1` (stereo not shown) [Example 313], 100 to 1000 nM; that for `Fc1ccc(Cn2nccc2-c2cc(Cl)c3nnn(-c4ccc5cn[nH]c5c4)c3c2)nc1` [Example 73], less than 100 nM.
`N#Cc1ccc(Cn2nccc2-c2cnc3c(N)nn(-c4ccc5[nH]c(=O)[nH]c5c4)c3c2)nc1` [Example 315]: the IC50 lay in the range of 100 to 1000 nM.
The result for `N#Cc1ccc(Cn2nccc2-c2cc3c(cn2)nnn3-c2ccc3c(=O)[nH][nH]c3c2)cc1` [Example 346] reads 100 to 1000 nM.
The result for `N#Cc1ccccc1Cn1nccc1-c1cc(F)c2nnn(-c3ccc4[nH]c(=O)[nH]c4c3)c2c1` [Example 214] reads greater than 1000 nM; that for `CC(=O)c1cc(C#N)ccc1Cn1nccc1-c1cc(F)c2nnn(-c3ccc4[nH]c(=O)[nH]c4c3)c2c1` [Example 289], 100 to 1000 nM.
The same measure for `N#Cc1ccc(Cn2nccc2-c2cc(F)c3nnn(-c4ccc(O)cc4)c3c2)cc1` [Example 354]: greater than 1000 nM.
As for `CC(c1ccc(C#N)cc1)n1nccc1-c1cc(Cl)c2nnn(-c3ccc4cn[nH]c4c3)c2c1` (stereo not shown) [Example 117], the half-maximal inhibitory concentration (IC50) lay within 100 to 1000 nM.
`CC(c1ccccc1)n1nccc1-c1ccc2nnn(-c3ccc4cn[nH]c4c3)c2c1` (stereo not shown) [Example 72]: the IC50 was greater than 1000 nM.
With `N#Cc1ccc(Cn2nccc2-c2cc(F)c3c(N)nn(-c4ccc5cn[nH]c5c4)c3c2)cc1` [Example 389], the IC50 was in the range of 100 to 1000 nM.
Consider `N#Cc1ccc(Cn2nccc2-c2cc(Cl)c3nnn(-c4ccc5[nH]c(=O)[nH]c5c4)c3c2)cc1` [Example 188], for which the IC50 fell in the range of 100 to 1000 nM.
Turning to `N#Cc1ccc(Cn2nccc2-c2cc(C#N)c3nnn(-c4ccc5cn[nH]c5c4)c3c2)cc1` [Example 114], the IC50 fell in the range of 100 to 1000 nM.
The result for `Cc1ccc(Cn2nccc2-c2cc(F)c3nnn(-c4ccc5cn[nH]c5c4)c3c2)nc1` [Example 86] reads 100 to 1000 nM.
The result for `FC(F)c1ccc(Cn2nccc2-c2cc(Cl)c3nnn(-c4ccc5cn[nH]c5c4)c3c2)cc1` [Example 63] reads less than 100 nM; that for `Cc1ccc(Cn2nccc2-c2cc(Cl)c3nnn(-c4ccc5[nH]c(=O)[nH]c5c4)c3c2)cc1F` [Example 207], 100 to 1000 nM.
The same measure for `COc1ccc(Cn2nccc2-c2cc3c(cn2)nnn3-c2ccc3[nH]c(=O)[nH]c3c2)c(Cl)c1` [Example 248]: 100 to 1000 nM; for `Clc1cnc(Cn2nccc2-c2cc(Cl)c3nnn(-c4ccc5cn[nH]c5c4)c3c2)c(Cl)c1` [Example 80]: 100 to 1000 nM.
`N#Cc1ccc(Cn2nccc2-c2cc3c(cn2)nnn3-c2ccc3[nH]c(=O)[nH]c3c2)nc1` [Example 178]: the half-inhibitory concentration (IC50) was 100 to 1000 nM.
The result for `FC(F)(F)c1ccc(Cn2nccc2-c2cc(Cl)c3nnn(-c4ccc5cn[nH]c5c4)c3c2)c(Cl)c1` [Example 110] reads 100 to 1000 nM; that for `N#Cc1ccc(Cn2nccc2-c2cnc3c(N)nn(-c4cc(F)c5[nH]c(=O)[nH]c5c4)c3c2)c(F)c1` [Example 337], 100 to 1000 nM; that for `N#Cc1ccc(Cn2nccc2-c2ccc3nnn(-c4ccc5[nH]c(=O)[nH]c5c4)c3c2)cc1` [Example 157], 100 to 1000 nM.
Consider `CC(c1ccc(Cl)cn1)n1nccc1-c1cc(Cl)c2nnn(-c3ccc4cn[nH]c4c3)c2c1` (stereo not shown) [Example 374], for which the IC50 is 100 to 1000 nM.
The result for `C=CCNc1nn(-c2ccc3cn[nH]c3c2)c2cc(-c3ccnn3Cc3ccc(C#N)cc3)cnc12` [Example 417] reads greater than 1000 nM.
The result for `N#Cc1ccc(Cn2nccc2-c2cc(Cl)c3nnn(-c4ccc5[nH]c(=O)[nH]c5c4)c3c2)c(F)c1` [Example 228] reads less than 100 nM; that for `N#Cc1ccc(Cn2nccc2-c2cc(F)c3nnn(-c4ccc5[nH]c(=O)[nH]c5c4)c3c2)c(C(N)=O)c1` [Example 290], 100 to 1000 nM.
The same measure for `O=c1[nH]c2ccc(-n3nnc4c(F)cc(-c5ccnn5Cc5ccc(Cl)cn5)cc43)cc2[nH]1` [Example 171]: 100 to 1000 nM; for `O=c1[nH]c2ccc(-n3nnc4c(F)cc(-c5ccnn5Cc5cccc6cn[nH]c56)cc43)cc2[nH]1` [Example 242]: greater than 1000 nM; for `O=c1[nH]c2ccc(-n3nnc4c(Cl)cc(-c5ccnn5Cc5ccncc5Cl)cc43)cc2[nH]1` [Example 230]: 100 to 1000 nM.
Regarding `O=c1[nH]c2ccc(-n3nnc4c(F)cc(-c5ccnn5Cc5ccncn5)cc43)cc2[nH]1` [Example 212], the half-inhibitory concentration (IC50) is greater than 1000 nM.
As to `CC(O)c1ccc(Cn2nccc2-c2cc(F)c3nnn(-c4ccc5[nH]c(=O)[nH]c5c4)c3c2)cc1` (stereo not shown) [Example 182], the 50% inhibitory concentration (IC50) is greater than 1000 nM.
`CC(c1ccc(Cl)cn1)n1nccc1-c1cc2c(cc1Cl)nnn2-c1ccc2cn[nH]c2c1` (stereo not shown) [Example 402]: the IC50 lay in the range of 100 to 1000 nM.
The same measure for `N#Cc1ccc(Cn2nccc2-c2cc(F)c3nnn(-c4ccc5[nH]c(=O)[nH]c5c4)c3c2)c(CN2CCC2C(=O)O)c1` (stereo not shown) [Example 285]: greater than 1000 nM; for `Oc1cccc(-n2nnc3c(Cl)cc(-c4ccnn4Cc4ccccc4)cc32)c1` [Example 9, 3-[6-(1-Benzyl-1H-pyrazol-5-yl)-4-chloro-1H-1,2,3-benzotriazol-1-yl]phenol]: less than 100 nM; for `N#Cc1ccc(Cn2nccc2-c2cc(F)c3nnn(-c4ccc5c(CNC(=O)CN)n[nH]c5c4)c3c2)cc1` [Example 351]: greater than 1000 nM.
The result for `Cn1c(=O)n(-c2ccc3cn[nH]c3c2)c2cc(-c3ccnn3Cc3ccc(C#N)cc3)cnc21` [Example 332] reads greater than 1000 nM; that for `Clc1ccc(Cn2nccc2-c2cnc3cnn(-c4ccc5cn[nH]c5c4)c3c2)c(Cl)c1` [Example 163], 100 to 1000 nM; that for `O=C(O)c1n[nH]c2cc(-n3nnc4c(Cl)cc(-c5ccnn5Cc5ccc(Cl)cc5Cl)cc43)ccc12` [Example 127], greater than 1000 nM.
The result for `CC(c1ccc(C#N)cc1F)n1nccc1-c1cc2c(cc1F)nnn2-c1ccc2cn[nH]c2c1` (stereo not shown) [Example 412] reads 100 to 1000 nM.
For `Cc1ccc(Cn2nccc2-c2cc(F)c3nnn(-c4ccc5cn[nH]c5c4)c3c2)cc1` [Example 100], the IC50 lay within 100 to 1000 nM.
The same measure for `N#Cc1cccc(-n2nccc2-c2cc3c(cn2)nnn3-c2ccc3[nH]c(=O)[nH]c3c2)c1` [Example 197]: greater than 1000 nM; for `O=c1[nH]c2ccc(-n3nnc4c(F)cc(-c5ccnn5Cc5ncccn5)cc43)cc2[nH]1` [Example 209]: greater than 1000 nM.
The same measure for `FC(F)(F)c1ccc(Cn2nccc2-c2cc(Cl)c3nnn(-c4ccc5cn[nH]c5c4)c3c2)cc1` [Example 69]: 100 to 1000 nM; for `CC(c1ccc(Br)cn1)n1nccc1-c1ccc2nnn(-c3ccc4cn[nH]c4c3)c2c1` (stereo not shown) [Example 92]: 100 to 1000 nM; for `O=c1[nH]c2ccc(-n3nnc4c(F)cc(-c5ccnn5Cc5cccnn5)cc43)cc2[nH]1` [Example 206]: greater than 1000 nM.
For `Cc1cnn(Cc2ccc(Cl)cc2)c1-c1cc(Cl)c2nnn(-c3ccc4cn[nH]c4c3)c2c1` [Example 56], the IC50 was in the range of 100 to 1000 nM.
The result for `N#Cc1ccc(Cn2cccc2-c2cc(F)c3nnn(-c4ccc5[nH]c(=O)[nH]c5c4)c3c2)cc1` [Example 328] reads 100 to 1000 nM; that for `N#Cc1ccc(Cn2nccc2-c2ccc3cnc(-c4ccc5[nH]c(=O)[nH]c5c4)n3c2)c(F)c1` [Example 335], greater than 1000 nM; that for `O=c1[nH]c2ccc(-n3nnc4c(F)cc(-c5ccnn5CCc5cccc(Cl)c5)cc43)cc2[nH]1` [Example 215], greater than 1000 nM.
The result for `O=c1[nH]c2ccc(-n3nnc4c(F)cc(-c5ccnn5Cc5ccc(Cl)cc5)cc43)cc2[nH]1` [Example 231] reads 100 to 1000 nM.
`O=c1[nH]c2ccc(-n3nnc4cnc(-c5ccnn5-c5cccc(F)c5)cc43)cc2[nH]1` [Example 196]: the half-maximal inhibitory concentration (IC50) is greater than 1000 nM.
Turning to `N#Cc1ccc(Cn2nccc2-c2cc(F)c3nnn(-c4ccc5[nH]c(=O)[nH]c5c4)c3c2)c(CN2CC(C(=O)O)C2)c1` [Example 294], the IC50 fell in the range of 100 to 1000 nM.
The same measure for `N#Cc1ccc(Cn2nccc2-c2cc(F)c3nnn(-c4ccc5[nH]c(=O)[nH]c5c4)c3c2)c(Cl)c1` [Example 235]: less than 100 nM; for `Nc1cccc(-n2nnc3c(Cl)cc(-c4ccnn4Cc4ccc(Cl)cc4Cl)cc32)c1` [Example 162]: greater than 1000 nM; for `Cc1cc(Cl)ccc1Cn1nccc1-c1cc(F)c2nnn(-c3ccc4cn[nH]c4c3)c2c1` [Example 95]: less than 100 nM.
The result for `Cc1cc(F)cnc1Cn1nccc1-c1cc(F)c2nnn(-c3ccc4cn[nH]c4c3)c2c1` [Example 88] reads greater than 1000 nM.
The result for `COc1cc(Cl)ccc1Cn1nccc1-c1cc(F)c2nnn(-c3ccc4[nH]c(=O)[nH]c4c3)c2c1` [Example 284] reads 100 to 1000 nM.
Consider `N#Cc1ccc(Cn2ncc(F)c2-c2cc(F)c3nnn(-c4ccc5[nH]c(=O)[nH]c5c4)c3c2)cc1` [Example 331], for which the IC50 was 100 to 1000 nM.
For the compound `Cc1ccc(Cn2nccc2-c2cc(Cl)c3nnn(-c4ccc5cn[nH]c5c4)c3c2)[n+]([O-])c1` [Example 381], the IC50 was less than 100 nM.

In general, IC50 refers to the concentration that gives 50% inhibition.
